# Source: patent publication US20220273807A1, “CONJUGATES FOR USE IN METHODS OF TREATING CANCER” (AstraZeneca AB, priority 2018, published 2022)
# Columns and labels:
# [1] = tested on: NCI-H1048 tumor cells; assay: Human small cell lung cancer tumor model (NCI-H1048), single agent and combination; assay type: in vivo, C.B.-17 SCID female mice; details: AZD2014 15 mg/kg daily (qd), oral; p<0.05
# Procedure: Compound 1 was formulated in citrate/phosphate buffer pH 5.0 containing 4.5% w/v glucose and dosed intravenously (iv) in a volume of 5 ml/kg. AZD2014 was formulated in 0.5% hydroxypropyl methylcellulose/0.1% Tween 80 and dosed oral in a volume of 10 ml/kg 5×10^6 NCI-H1048 tumor cells were injected subcutaneously in the right flank of C.B.-17 SCID female mice in a volume of 0.1 mL containing 50% matrigel. Tumor volume (measured by caliper) was calculated using the formula: length (mm) x width (mm)^2×0.52. For efficacy studies, mice were randomized based on tumor volume and growth inhibition was assessed by comparison of the differences in tumor volume between control and treated groups. Dosing began when mean tumor volume reached approximately 124 mm^3.
# [2] = tested on: RS4; 11 cells; assay: Efficacy in RS4:11 xenograft model; assay type: in vivo, mouse; details: Compound A 5 mg/kg
# Procedure: Preparation of Compound PBS formulations for dosinq RS4:11 efficacy study: The appropriate amounts of Compound 1 were weighed into a volumetric flask. 10 mL Dulbecc's Phosphate Buffered Saline (PBS) was added and formulations were then stirred until the compound dissolved entirely.
# Formulation of Compound A in 30% w/v HP-β-CD
# 30% w/v HP-β-CD vehicle was prepared. 3 g HP-β-CD (Roquette Kleptose, parenteral grade) was weighed into a 10 mL volumetric flask and 8 mL WFI added and stirred (or sonicated) to dissolve. Once dissolved the volume was made up to 10 mL with WFI.
# The appropriate amount of Compound A was weighed into a 10 mL volumetric flask. 8 mL of 30% w/v HP-β-CD vehicle was then added and the formulation stirred. 1M MSA was added dropwise until the pH was reduced to about 2. The formulation was then stirred until the compound dissolved entirely. The pH was measured and adjusted to pH 4, dropwise using 1M MSA or NaOH. […] The final pH was measured and recorded and the formulation filtered through a 0.22 uM filter prior to administration. […]
# On specific day, for each treated group, calculate Inhibition value by formula: Inhibition %=(CG−TG)*100/(CG−1), in which “CG” means the geometric mean of rtv of the control group and “TG” means the Geometric Mean of Relative Tumor Volume (rtv) of the treated group. “CG” should use the corresponding control group of the treated group when calculated. […]
# [3] = tested on: OCI-Ly10 tumor cells; assay: Human DLBCL xenograft model (OCI-Ly10), single agent and combination; assay type: in vivo, C.B.-17 SCID female mice; details: single agent acalabrutinib 12.5 mg/kg bid po
# Procedure: 5×10^6 OCI-Ly10 tumor cells were injected subcutaneously in the right flank of C.B.-17 SCID female mice in a volume of 0.1 mL containing 50% matrigel. Compound 1 was formulated in citrate/phosphate buffer pH 5.0, diluted 1 to 10 with 5% glucose containing 1% w/v Kolliphor HS15, and dosed as a weekly intravenous (iv) administration at a volume of 5 mL/kg at a dose of 103 mg/kg (30 mg/kg API). Acalabrutinib was formulated in 0.5% hydroxypropyl methyl cellulose/0.2% Tween 80, and dosed twice a day (bid) as an oral (po) administration at a volume of 10 mL/kg at a dose of 12.5 mg/kg. Tumor volumes (measured by caliper), animal body weight, and tumor condition were recorded twice weekly for the duration of the study. The tumor volume was calculated using the formula: length (mm) x width (mm)^2×0.52. For efficacy studies, growth inhibition from the start of treatment was assessed by comparison of the differences in tumor volume between control and treated groups. Dosing began when mean tumor size reached approximately 166 mm3.
structure (smiles),measurement,setting,value
"CNC(=O)c1cccc(-c2ccc3c(N4CCOC[C@@H]4C)nc(N4CCOC[C@@H]4C)nc3n2)c1 [AZD2014, vistusertib]","anti-tumor activity, TGI",[1],84%
CN(CCO)CC[C@H](CSc1ccccc1)Nc1ccc(S(=O)(=O)NC(=O)c2ccc(N3CCC([C@@H](O)c4ccccc4-c4ccc(Cl)cc4)CC3)cc2)cc1S(=O)(=O)C(F)(F)F [Compound A],% Inhibition Day (47),[2],>100%
same,% Regression Day(47),[2],90%
CC#CC(=O)N1CCC[C@H]1c1nc(-c2ccc(C(=O)Nc3ccccn3)cc2)c2c(N)nccn12 [acalabrutinib],tumor growth inhibition (TGI),[3],~58%
